Data from ChEMBL document CHEMBL1139510, “Early absorption and distribution analysis of antitumor and anti-AIDS drugs: lipid membrane and plasma protein interactions” (J Med Chem, 2005).

Legend:
Type in all cases: ADME
Albumin [1] = target: T1, Albumin (Homo sapiens, UniProt P02768); assay: Equilibrium dissociation constant for the interaction between the compound and serum albumin
Albumin [2] = target: T1, Albumin; assay: Dissociation rate constant for the interaction between the compound and serum albumin
Albumin [3] = target: T1, Albumin; assay: Association rate constant for the interaction between the compound and serum albumin

T1 sequence (P02768 whole entry): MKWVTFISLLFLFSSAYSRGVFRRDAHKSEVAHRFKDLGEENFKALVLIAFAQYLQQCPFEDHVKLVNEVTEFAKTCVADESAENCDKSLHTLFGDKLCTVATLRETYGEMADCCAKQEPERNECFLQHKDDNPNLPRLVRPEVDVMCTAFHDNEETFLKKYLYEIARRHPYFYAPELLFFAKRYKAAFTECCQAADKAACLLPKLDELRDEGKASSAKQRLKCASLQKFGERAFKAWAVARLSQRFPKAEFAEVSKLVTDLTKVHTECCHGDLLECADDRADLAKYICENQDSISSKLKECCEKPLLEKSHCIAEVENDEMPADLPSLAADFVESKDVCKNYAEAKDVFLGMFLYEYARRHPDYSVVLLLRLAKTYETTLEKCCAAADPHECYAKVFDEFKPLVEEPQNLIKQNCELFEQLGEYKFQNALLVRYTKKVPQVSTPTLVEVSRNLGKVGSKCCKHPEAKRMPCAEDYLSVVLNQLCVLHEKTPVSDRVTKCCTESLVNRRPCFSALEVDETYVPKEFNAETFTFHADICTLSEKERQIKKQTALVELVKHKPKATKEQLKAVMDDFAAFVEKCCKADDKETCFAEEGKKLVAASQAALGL

Row | SMILES | Kd (Albumin [1]; read-out: KD1) [µM] | Kd (Albumin [1]; read-out: KD2) [µM] | Koff1 (Albumin [2]) [s⁻¹] | Koff2 (Albumin [2]) [s⁻¹] | kon (Albumin [3]; read-out: Kon1) [M⁻¹ s⁻¹] | kon (Albumin [3]; read-out: Kon2) [M⁻¹ s⁻¹]
1 | CC(C)(C)NC(=O)[C@@H]1C[C@@H]2CCCC[C@@H]2CN1C[C@@H](O)[C@H](Cc1ccccc1)NC(=O)[C@H](CC(N)=O)NC(=O)c1ccc2ccccc2n1 | 34 | 301 | 0.856 | 0.085 | 25000 | 282
2 | CC(C)CN(C[C@@H](O)[C@H](Cc1ccccc1)NC(=O)O[C@H]1CCOC1)S(=O)(=O)c1ccc(N)cc1 | 124 | 328 | 2.75 | 0.068 | 22100 | 208
3 | CC(=O)O[C@@]1(C2/C(C)=C(/O)C(=O)C3=C(C)[C@@H](OC(=O)[C@H](O)[C@H](CC(C)C)NC(=O)OC(C)(C)C)C[C@@](O)([C@H]2OC(=O)c2ccccc2)C3(C)C)CO[C@@H]1CCO (stereo partly specified) | 319 | 1820 | 1.875 | 0.045 | 5900 | 33.1
4 | CC(=O)O[C@H]1C(=O)[C@@]2(C)C([C@H](OC(=O)c3ccccc3)[C@]3(O)C[C@H](OC(=O)[C@H](O)[C@@H](NC(=O)c4ccccc4)c4ccccc4)C(C)=C1C3(C)C)[C@]1(OC(C)=O)CO[C@@H]1C[C@@H]2OC(=O)CCC(=O)O (stereo partly specified) | 192 | 1170 | 1.183 | 0.033 | 7300 | 36.4
5 | Cc1c(O)cccc1C(=O)N[C@@H](CSc1ccccc1)[C@H](O)CN1C[C@H]2CCCC[C@H]2C[C@H]1C(=O)NC(C)(C)C | 230 | 6 | 0.413 |  | 1800 | 12.6
6 | COC(=O)N[C@H](C(=O)N[C@@H](Cc1ccccc1)[C@@H](O)CN(Cc1ccc(-c2ccccn2)cc1)NC(=O)[C@@H](NC(=O)OC)C(C)(C)C)C(C)(C)C [ATAZANAVIR] | 149 | 599 | 1.43 | 0.025 | 9600 | 41.8
7 | CC(=O)O[C@@]12CO[C@@H]1C[C@H](O)[C@@]1(C)C(=O)[C@H](O)C3=C(C)[C@@H](OC(=O)[C@H](O)[C@@H](NC(=O)OC(C)(C)C)c4ccccc4)C[C@@](O)([C@@H](OC(=O)c4ccccc4)[C@H]21)C3(C)C.O.O.O [DOCETAXEL] | 199 | 2110 | 1.505 | 0.069 | 7700 | 43.7
8 | Cc1cccc(C)c1OCC(=O)N[C@@H](Cc1ccccc1)[C@@H](O)C[C@H](Cc1ccccc1)NC(=O)[C@H](C(C)C)N1CCCNC1=O [LOPINAVIR] | 24 | 6 | 0.619 |  | 25900 | 10.1
